Data as given in patent publication US12291522B2, “Galectin-3 inhibitors” (BRISTOL-MYERS SQUIBB COMPANY, priority 2020, dated 2025).
Like-named read-outs stand apart in the source and are kept apart here.

Columns and labels:
[1] = target: T1, hCRBN (NanoLuc-CRBN fusion construct in HEK-293 cells) (Homo sapiens, UniProt Q96SW2); assay: CRBN BRET Target Engagement; type: cell-based; conditions: NanoLuc-CRBN transfected HEK-293 cells, BRET with CRBN Probe
T1 construct: expressed in transfected cells; host or cells: HEK-293
Procedure: CRBN BRET Target Engagement (hCRBN IC50 (μM))
NanoLuc-CRBN fusion construct was transfected in HEK-293 cells using FuGENE HD (Promega) according to the manufacturer's protocol. In brief, Nluc-CRBN was diluted into Transfection Carrier DNA (Promega) 1:10 (mass/mass), to which FuGENE HD was 1:3 (μg DNA:μL FuGENE HD). One part (vol) of DNA:FuGENE HD complexes were combined with 20 parts (vol) of HEK-293 cells suspended at a density of […]. Cells were incubated for ˜20 hr at 37° C./5% CO2. Following transfection, cells were washed and resuspended at 200,000 cells/mL in OptiMEM without phenol red (Gibco).
For BRET measurements, cells were seeded in a 384-well nonbinding surface plate (Corning) plate for a final count of 10,000 cells/well. Compounds were dissolved at 10 mM in dimethylsulfoxide (DMSO) and evaluated at eleven concentrations using a high concentration of […]. CRBN Probe was used for equilibrium measurements, employing a final concentration of approximately EC50-80. For live-cell measurements, 20 nM of CRBN Probe was added. For the live-cell assay conditions, the plates were incubated for 2 hours at 37° C./5% CO2. NanoBRET NanoGlo Substrate and Extracellular Nanoluc Inhibitor (Promega) were added according to manufacturer's guidelines. For lytic cell measurements, digitonin was added to the cells to a final concentration of 50 μg/mL and 20 nM of CRBN Probe was added. To measure NanoBRET in permeabilized cells, extracellular Nluc inhibitor was omitted during the detection step. For all BRET experiments, the Envision 2015 (Perkin Elmer) equipped with a BRET2 Enh mirror, BRET 647 nM/75 nM Bandwidth and BC703 460 nM/80 nM Bandwidth filters was used for readouts. Each read was integrated for 0.5 s.
To determine compound potency (IC50), BRET ratios for each dilution series was first normalized to a % Inhibition value via Equation 1, where “S” represents Sample BRET, “B” represents Background BRET, and “T” represents Total BRET. In this equation, the background control (B) consists of NanoLuc-CRBN expressing cells and no CRBN Probe. The total BRET Ratio (T) consists of NanoLuc-CRBN expressing cells, CRBN Probe, and an amount of DMSO at a concentration equivalent to that added when testing compounds.
Following normalization, the percent inhibition values are plotted as a function of compound concentration and fit to Equation 2. […]

[2] = target: His-tagged recombinant human Gal-3 (hGal-3) (Homo sapiens, UniProt P17931); assay: Gal-3 HTRF assay (His-tagged hGal-3 / B-ASF); type: binding; conditions: 15 nM hGal-3, 15 nM B-ASF
Procedure: ASSAY BUFFER Composition: 25 mM HEPES, 100 mM NaCl, 0.005% Tween 20, 0.05% BSA prepared in sterile water (all reagents from Sigma).
• Positive Control: 100% DMSO (1 μL)+His-tagged hGal-3 (20 μL)+B-ASF (20 μL)+Anti-His Terbium Antibody (5 μL)+Strep d2 Antibody (5 μL). • Negative Control: 100% DMSO (1 μL)+His-tagged hGal-3 (20 μL)+Anti His Terbium Antibody (5 μL)+Strep d2 Aantibody (5 μL). Stocks Preparation:
PROTOCOL: The Gal-3 assays were performed in 384 white Opti plates in three replicates at room temperature with gentle shaking at 250-300 rpmFrom the original stocks, […] working stock concentrations of His-tagged recombinant human Gal-3 (hGal-3) and that of B-ASF were prepared. From the working stock, 20 μL of hGal-3 (15 nM) and 20 μL B-ASF (15 nM) were added to the plates. In Negative Control, only hGal-3 was added. A concentration range of 50× working stocks were prepared for the compounds in 100% DMSO. Aliquots of luL of the compounds were added to the wells and pre-incubated with 20 μL hGal-3 per well for 30 minutes Then 20 μL B-ASF wereadded and incubated for another 1 hour. To detect the signal, 5 μL (final conc. of 1.0 nM) terbium labelled Anti-His antibody was added and incubated for 30 min followed by adding 5 μL (final conc. of 20 nM) Streptavidin d2 and incubation for another 1 hour. The assay signal was detected using HTRF screen protocol (Excitation wavelength=340 nm, emission wavelength=615 nm/665 nm) on Envision 2104 Multilabel Reader. Data analysed using Toolset and Curve Master. Results are reported in the experimental section (IC50 in μM).

[3] = target: T2, Gal3 (Human Galectin-3) in THP-1 cells (Homo sapiens, UniProt P17931); assay: ELISA Gal3 Degradation Assay in THP-1 Cells; type: cell-based; conditions: 48 hours, culture media Gal3 by ELISA
T2 construct: host or cells: THP-1
Procedure: [formula] ELISA Gal3 Degradation Assay in THP-1 Cells
THP-1 cells (ATCC, Cat #TIB-202), a human monocyte cell line derived from leukemia were plated at 2E6 cells/mL in 200 uL/well of RPMI 1640 (ThermoFisher, Cat #11835) in 96-well plates. Cells were treated with DMSO as a control and various concentrations of compounds for 48 hours. After the treatment, the culture media were collected. The PBS washed cell pellets were lysed in Lysis Buffer (Cell Signaling, Cat #9803) supplemented with 1XProtease Inhibitor Cocktail (Cell Signaling, Cat #5872). Gal3 levels in culture media and cell lysates were quantified by ELISA assays (Human Galectin-3 DuoSet ELISA kit, R&D Systems, Cat #DY1154) according to manufacturer's instructions. The cell culture media were also used for the assessment of cellular toxicity (LDH Assay kit, R&D Systems, DY994). The IC50 (degradation concentration at 50%) values were calculated based on the cellular Gal3 protein levels using DMSO as the control.

[4] = test 1, read-out: Supernatant (IC50) test 1
[5] = test 2, read-out: Supernatant (IC50) test 2

T1 sequence (Q96SW2 whole entry, the tested form may be a part): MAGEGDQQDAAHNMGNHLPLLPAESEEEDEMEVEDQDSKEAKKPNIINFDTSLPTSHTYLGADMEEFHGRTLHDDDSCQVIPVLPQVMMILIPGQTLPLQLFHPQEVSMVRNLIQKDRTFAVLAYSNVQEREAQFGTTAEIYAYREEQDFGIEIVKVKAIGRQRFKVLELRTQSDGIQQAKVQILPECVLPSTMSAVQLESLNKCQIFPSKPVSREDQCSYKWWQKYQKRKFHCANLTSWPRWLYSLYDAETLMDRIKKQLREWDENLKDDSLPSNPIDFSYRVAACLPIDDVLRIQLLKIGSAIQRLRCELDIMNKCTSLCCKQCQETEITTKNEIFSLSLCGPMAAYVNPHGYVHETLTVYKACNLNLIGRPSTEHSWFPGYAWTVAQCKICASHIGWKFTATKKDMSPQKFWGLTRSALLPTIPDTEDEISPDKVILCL
T2 sequence (P17931 whole entry): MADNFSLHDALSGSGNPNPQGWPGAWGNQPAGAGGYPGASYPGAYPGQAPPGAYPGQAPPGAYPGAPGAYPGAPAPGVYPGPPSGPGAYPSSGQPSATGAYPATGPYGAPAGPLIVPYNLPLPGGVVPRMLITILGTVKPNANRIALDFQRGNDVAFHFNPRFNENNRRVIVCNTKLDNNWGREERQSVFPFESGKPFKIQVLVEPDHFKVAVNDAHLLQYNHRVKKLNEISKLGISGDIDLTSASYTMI
Chain of His-tagged recombinant human Gal-3 (hGal-3) (P17931 whole entry): as above

Compound: Cc1nc([C@@H]2O[C@H](CO)[C@H](O)[C@H](n3cc(-c4cc(F)c(Cl)c(F)c4)nn3)[C@H]2OCC(=O)NCCOCC(=O)Nc2ccc3c(c2)CN(C2CCC(=O)NC2=O)C3=O)n(-c2cc(Cl)ccc2C(F)(F)F)n1 (stereo partly drawn) [Example 1, 2-(((2S,3R,4S,5R,6R)-2-(1-(5-Chloro-2-(trifluoromethyl)phenyl)-3-methyl-1H-1,2,4-triazol-5-yl)-4-(4-(4-chloro-3,5-difluorophenyl)-1H-1,2,3-triazol-1-yl)-5-hydroxy-6-(hydroxymethyl)tetrahydro-2H-pyran-3-yl)oxy)-N-(2-(2-((2-(2,6-dioxopiperidin-3-yl)-1-oxoisoindolin-5-yl)amino)-2-oxoethoxy)ethyl)acetamide]
- IC50 [1]: 780 nM
- IC50 [2]: 82 nM

Compound: Cc1nc([C@@H]2O[C@H](CO)[C@H](O)[C@H](n3cc(-c4cc(F)c(Cl)c(F)c4)nn3)[C@H]2OCC(=O)NCc2ccc(C(=O)Nc3ccc4c(c3)CN(C3CCC(=O)NC3=O)C4=O)cc2)n(-c2cc(Cl)ccc2C(F)(F)F)n1 (stereo partly drawn) [Example 2, 4-((2-(((2S,3R,4S,5R,6R)-2-(1-(5-Chloro-2-(trifluoromethyl)phenyl)-3-methyl-1H-1,2,4-triazol-5-yl)-4-(4-(4-chloro-3,5-difluorophenyl)-1H-1,2,3-triazol-1-yl)-5-hydroxy-6-(hydroxymethyl)tetrahydro-2H-pyran-3-yl)oxy)acetamido)methyl)-N-(2-(2,6-dioxopiperidin-3-yl)-1-oxoisoindolin-5-yl)benzamide]
- IC50 [1]: 269 nM
- IC50 [2]: 109 nM

Compound: Cc1nc([C@@H]2O[C@H](CO)[C@H](O)[C@H](n3cc(-c4cc(F)c(Cl)c(F)c4)nn3)[C@H]2OCC(=O)N2CC(COc3ccc(C(=O)Nc4ccc5c(c4)CN(C4CCC(=O)NC4=O)C5=O)cc3)C2)n(-c2cc(Cl)ccc2C(F)(F)F)n1 (stereo partly drawn) [Example 7, 4-((1-(2-(((2S,3R,4S,5R,6R)-2-(1-(5-Chloro-2-(trifluoromethyl)phenyl)-3-methyl-1H-1,2,4-triazol-5-yl)-4-(4-(4-chloro-3,5-difluorophenyl)-1H-1,2,3-triazol-1-yl)-5-hydroxy-6-(hydroxymethyl)tetrahydro-2H-pyran-3-yl)oxy)acetyl)azetidin-3-yl)methoxy)-N-(2-(2,6-dioxopiperidin-3-yl)-1-oxoisoindolin-5-yl)benzamide]
- IC50 [1]: 601 nM
- IC50 [2]: 56 nM

Compound: Cc1nc([C@@H]2O[C@H](CO)[C@H](O)[C@H](n3cc(-c4cc(F)c(Cl)c(F)c4)nn3)[C@H]2OCC(=O)N2CC(COc3ccc(C(=O)Nc4ccc5c(c4)CN(C4CCC(=O)N(C)C4=O)C5=O)cc3)C2)n(-c2cc(Cl)ccc2C(F)(F)F)n1 (stereo partly drawn) [Example 9, 4-((1-(2-(((2S,3R,4S,5R,6R)-2-(1-(5-Chloro-2-(trifluoromethyl)phenyl)-3-methyl-1H-1,2,4-triazol-5-yl)-4-(4-(4-chloro-3,5-difluorophenyl)-1H-1,2,3-triazol-1-yl)-5-hydroxy-6-(hydroxymethyl)tetrahydro-2H-pyran-3-yl)oxy)acetyl)azetidin-3-yl)methoxy)-N-(2-(1-methyl-2,6-dioxopiperidin-3-yl)-1-oxoisoindolin-5-yl)benzamide]
- IC50 [1]: 8950 nM
- IC50 [2]: 85 nM

Compound: Cc1nc([C@@H]2O[C@H](CO)[C@H](O)[C@H](n3cc(-c4cc(F)c(Cl)c(F)c4)nn3)[C@H]2OCC(=O)NCCOCCOCCNC(=O)COc2cccc3c2C(=O)N(C2CCC(=O)NC2=O)C3=O)n(-c2cc(Cl)ccc2C(F)(F)F)n1 (some centres unmarked) [Example 12]
- IC50 [1]: 520 nM
- IC50 [2]: 20 nM

Compound: Cc1nc([C@@H]2O[C@H](CO)[C@H](O)[C@H](n3cc(-c4cc(F)c(Cl)c(F)c4)nn3)[C@H]2OCC(=O)NCCOCCOCCOCCNC(=O)c2ccc3c(c2)C(=O)N(C2CCC(=O)NC2=O)C3=O)n(-c2cc(Cl)ccc2C(F)(F)F)n1 (some centres unmarked) [Example 13]
- IC50 [1]: 810 nM
- IC50 [2]: 66 nM

Compound: Cc1nc([C@@H]2O[C@H](CO)[C@H](O)[C@H](n3cc(-c4cc(F)c(Cl)c(F)c4)nn3)[C@H]2OCC(=O)NCCOCCOCCNC(=O)c2ccc3c(c2)C(=O)N(C2CCC(=O)NC2=O)C3=O)n(-c2cc(Cl)ccc2C(F)(F)F)n1 (some centres unmarked) [Example 14]
- IC50 [1]: 1500 nM
- IC50 [2]: 25 nM

Compound: Cc1nc([C@@H]2O[C@H](CO)[C@H](O)[C@H](n3cc(-c4cc(F)c(Cl)c(F)c4)nn3)[C@H]2OCC(=O)N[C@H]2C[C@H](Oc3ccc(C(=O)Nc4ccc5c(c4)CN(C4CCC(=O)NC4=O)C5=O)cc3)C2)n(-c2cc(Cl)ccc2C(F)(F)F)n1 (some centres unmarked) [Example 15]
- IC50 [1]: 380 nM
- IC50 [2]: 420 nM

Compound: Cc1nc([C@@H]2O[C@H](CO)[C@H](O)[C@H](n3cc(-c4cc(F)c(Cl)c(F)c4)nn3)[C@H]2OCC(=O)NCCOCCOCCNC(=O)c2ccc3c(c2)C(=O)N(C2CCC(=O)N(C)C2=O)C3=O)n(-c2cc(Cl)ccc2C(F)(F)F)n1 (some centres unmarked) [Example 16]
- IC50 [1]: > 50000 nM
- IC50 [2]: 69 nM

Compound: Cc1nc([C@@H]2O[C@H](CO)[C@H](O)[C@H](n3cc(-c4cc(F)c(Cl)c(F)c4)nn3)[C@H]2OCC(=O)N[C@H]2C[C@H](Oc3ccc(C(=O)Nc4ccc5c(c4)CN(C4CCC(=O)N(C)C4=O)C5=O)cc3)C2)n(-c2cc(Cl)ccc2C(F)(F)F)n1 (some centres unmarked) [Example 17]
- IC50 [1]: > 50000 nM
- IC50 [2]: 140 nM

Compound: Cc1nc([C@@H]2O[C@H](CO)[C@H](O)[C@H](n3cc(-c4cc(F)c(Cl)c(F)c4)nn3)[C@H]2OCC(=O)NCCOCC(=O)N[C@H](C(=O)N2C[C@H](O)C[C@H]2C(=O)NCc2ccc(-c3scnc3C)cc2)C(C)(C)C)n(-c2cc(Cl)ccc2C(F)(F)F)n1 [Example 20]
- IC50 [3, 4]: 51 nM
- IC50 [3, 5]: 42 nM
- IC50 [2]: 50 nM

Compound: Cc1nc([C@@H]2O[C@H](CO)[C@H](O)[C@H](n3cc(-c4cc(F)c(Cl)c(F)c4)nn3)[C@H]2OCC(=O)NCCOCC(=O)NCc2ccc(S(=O)(=O)Nc3ccc(C)c4c(C#N)c[nH]c34)cc2)n(-c2cc(Cl)ccc2C(F)(F)F)n1 [Example 22]
- IC50 [3, 4]: 3400 nM
- IC50 [3, 5]: 3340 nM
- IC50 [2]: 294 nM

Compound: Cc1nc([C@@H]2O[C@H](CO)[C@H](O)[C@H](n3cc(-c4cc(F)c(Cl)c(F)c4)nn3)[C@H]2OCC(=O)N[C@H]2C[C@@H](Oc3ccc(C(=O)N[C@H](C(=O)N4C[C@H](O)C[C@H]4C(=O)NCc4ccc(-c5scnc5C)cc4)C(C)(C)C)nc3)C2)n(-c2cc(Cl)ccc2C(F)(F)F)n1 [Example 33]
- IC50 [3, 4]: > 30000 nM
- IC50 [3, 5]: > 30000 nM
- IC50 [2]: 1010 nM
